The results in this text go back to the supplement of paper PMC11061612.

Common to all, as to experiment: combination Emax (second highest fraction inhibited in the dose matrix, 72 h); higher = more inhibition; extreme values may be limits of the assay
Experiment [1] has as its system CAL-39 (Other Solid Carcinomas). The method in brief: (§1)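 After 24 hours at 37°C and 5% CO2 in 1536-well plates, cells in DMEM/F12 or RPMI plus 10% FBS received two-drug dose matrices for 72 hours. Viability came from CellTiter-Glo 2.0 luminescence and was scaled as inhibition, anchored at 0 by vehicle wells and at 1 by blank wells. Combination Emax is taken as the second-highest inhibition in the matrix, and Bliss excess as the observed combination effect less EA + EB − EA·EB, with EA and EB the single-agent effects.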

For experiment [2], the system named is D-283MED (Other Solid Carcinomas). The method in brief:
as §1

For a further experiment, the system named is D-392MG (Glioblastoma). The method in brief: as §1
For experiment [3], the system named is ETK-1 (Biliary Tract Carcinoma). The method, boiled down:
as §1

In a further experiment the test system is H4 (Low Grade Glioma). The method, boiled down:
as §1

Experiment [4] has as its system HCC1143 (Breast Carcinoma). The method in brief:
as §1

Experiment [5] has as its system HCT-116 (Colorectal Carcinoma). The method, boiled down: as §1
In experiment [6] the test system is HLE (Hepatocellular Carcinoma). The method in brief: as §1
The test system of experiment [7] is HOP-92 (Non-Small Cell Lung Carcinoma). The method, boiled down: as §1
Experiment [8] deals with KG-1 (Acute Myeloid Leukemia). The method in brief:
as §1

A further experiment deals with MCF7 (Breast Carcinoma). The method, boiled down:
as §1

The test system of experiment [9] is NCI-H1688 (Small Cell Lung Carcinoma). The method in brief: as §1
Experiment [10] concerns PA-TU-8902 (Pancreatic Carcinoma). The method, boiled down:
as §1

Experiment [11] concerns SNG-M (Endometrial Carcinoma). The method in brief:
as §1

For experiment [12], the system named is SNU-61 (Colorectal Carcinoma). The method, boiled down:
as §1

Experiment [13] relates to SW948 (Colorectal Carcinoma). The method, boiled down:
as §1

The test system of a further experiment is Saos-2 (Osteosarcoma). The method in brief:
as §1

Experiment [14] deals with TYK-nu (Ovarian Carcinoma). The method in brief: as §1
The subject of experiment [15] is U-118-MG (Low Grade Glioma). The method, boiled down:
as §1

The subject of experiment [16] is YT (Other Blood Carcinomas). The method, boiled down: as §1

In the case of `Cc1c2c(nn1C)CSCc1cc(n(C)n1)CSc1cc(c3ccccc3c1)OCCCc1c(C(=O)O)n(C)c3c-2c(Cl)ccc13` [AZD5991] + Cn1cnc2c(F)c(Nc3ccc(Br)cc3Cl)c(C(=O)NOCCO)cc21 [Selumetinib] (first compound max 1 µM, 7x7, partner max 3 µM), the “combination Emax” value worked out at 0.874 in experiment [1]; 0.237 in experiment [2]; 0.364 in the experiment on D-392MG (Glioblastoma); 0.311 in experiment [3]; 0.456 in the experiment with H4 (Low Grade Glioma); 0.383 in experiment [4]. For the same compound, the “combination Emax” value was 0.523 in experiment [5]; 0.326 in [6]; 0.456 in [7]; 1 in experiment [8]; 0.559 with MCF7 (Breast Carcinoma); 0.411 in [9]. Besides, the “combination Emax” value in experiment [10] stood at 0.293; in experiment [11] it was 0.233; in experiment [12], 0.464; in [13] it was 0.69; with Saos-2 (Osteosarcoma), 0.247; in experiment [14] it was 0.513. For the same compound, the results for the “combination Emax” value in [15] and in [16] were 0.326 and 1, respectively.

As for `Cc1cc2ncnn2cc1Nc1ncc2c(n1)n(C1CCOCC1)c(=O)n2C` [AZD7648] + C=CCn1c(=O)c2cnc(Nc3ccc(N4CCN(C)CC4)cc3)nc2n1-c1cccc(C(C)(C)O)n1 [AZD1775] (first compound max 10 µM, partner max 1 µM), the “combination Emax” value in [1] was 0.462; in experiment [2] it was 0.957; in the experiment with D-392MG (Glioblastoma), 0.397; in [3], 0.452; in the experiment on H4 (Low Grade Glioma) it was 0.796; in experiment [4], 0.603. In addition, the “combination Emax” value in [5] stood at 0.633; in [6], 0.66; in experiment [7], 0.613; in experiment [8], 0.452; in the experiment on MCF7 (Breast Carcinoma), 0.552; in [9] it was 0.586. For the same compound, the “combination Emax” value worked out at 0.348 in [10]; 0.645 in experiment [11]; 0.401 in [12]; 0.83 in [13]; 0.582 with Saos-2 (Osteosarcoma); 0.695 in experiment [14]. For the same compound, the results for the “combination Emax” value in experiment [15] and in [16] were 0.435 and 0.89, respectively.

Regarding `Cc1cc2ncnn2cc1Nc1ncc2c(n1)n(C1CCOCC1)c(=O)n2C` [AZD7648] + CCN(CCO)CCCOc1ccc2c(Nc3cc(CC(=O)Nc4cccc(F)c4)[nH]n3)ncnc2c1 [AZD2811] (first compound max 10 µM, 7x7, partner max 1 µM), the “combination Emax” value in experiment [1] is 0.433; in experiment [2], 0.74; in the experiment with D-392MG (Glioblastoma) it was 0.329; in experiment [3], 0.25; with H4 (Low Grade Glioma) it was 0.711; in experiment [4], 0.403. Further, the “combination Emax” value is 0.528 in experiment [5]; 0.433 in [6]; 0.41 in [7]; 0.386 in [8]; 0.55 with MCF7 (Breast Carcinoma); 0.201 in [9]. Besides, the “combination Emax” value was 0.309 in experiment [10]; 0.281 in experiment [11]; 0.254 in [12]; 0.737 in experiment [13]; 0.45 in the experiment on Saos-2 (Osteosarcoma); 0.422 in experiment [14]. Besides, the figures for the “combination Emax” value in [15] and in experiment [16] were 0.317 and 0.624, respectively.

`Cc1cc2ncnn2cc1Nc1ncc2c(n1)n(C1CCOCC1)c(=O)n2C` [AZD7648] + CN(C)CCCOc1ccc(-c2ccc3ncc4c(c3c2)n(C2CCOCC2)c(=O)n4C)cn1 [AZD0156] (first compound max 10 µM, 7x7, partner max 1 µM): the “combination Emax” value in [1] came to 0.322; in experiment [2] it was 0.496; with D-392MG (Glioblastoma), 0.301; in [3], 0.155; in the experiment with H4 (Low Grade Glioma), 0.448; in [4], 0.242. The “combination Emax” value in experiment [5] was 0.317; in [6] it was 0.31; in experiment [7] it was 0.231; in [8], 0.323; in the experiment with MCF7 (Breast Carcinoma) it was 0.373; in [9], 0.147. For the same compound, the “combination Emax” value was 0.227 in experiment [10]; 0.205 in [11]; 0.172 in [12]; 0.545 in [13]; 0.171 in the experiment on Saos-2 (Osteosarcoma); 0.431 in experiment [14]. For the same compound, the “combination Emax” value in experiment [15] was 0.277; in [16] it was 0.705.

Take `Cc1cc2ncnn2cc1Nc1ncc2c(n1)n(C1CCOCC1)c(=O)n2C` [AZD7648] + C[C@@H]1COCCN1C2=NC(=NC(=C2)C3(CC3)[S@](=N)(=O)C)C4=C5C=CNC5=NC=C4 [AZD6738] (first compound max 10 µM, 7x7, partner max 10 µM): the “combination Emax” value in experiment [1] was determined as 0.485; in experiment [2], 0.988; in the experiment with D-392MG (Glioblastoma), 0.52; in experiment [3], 0.621; in the experiment on H4 (Low Grade Glioma) it was 0.789; in experiment [4] it was 0.853. Also, the “combination Emax” value turned out to be 0.723 in experiment [5]; 0.721 in experiment [6]; 0.493 in [7]; 0.67 in experiment [8]; 0.755 in the experiment with MCF7 (Breast Carcinoma); 0.251 in experiment [9]. The “combination Emax” value worked out at 0.24 in [10]; 0.939 in experiment [11]; 0.326 in experiment [12]; 0.578 in [13]; 0.561 with Saos-2 (Osteosarcoma); 0.695 in experiment [14]. The “combination Emax” value in experiment [15] was found to be 0.435; in experiment [16], 0.833.

Regarding `NC1(C(=O)N[C@@H](CCO)c2ccc(Cl)cc2)CCN(c2ncnc3[nH]ccc23)CC1` [Capivasertib] + CC(=O)c1c(C)c2cnc(Nc3ccc(N4CCNCC4)cn3)nc2n(C2CCCC2)c1=O [Palbociclib] (first compound max 10 µM, 7x7, partner max 10 µM), the “combination Emax” value in [1] stood at 0.672; in experiment [2] it was 0.634; in the experiment with D-392MG (Glioblastoma), 0.436; in [3] it was 0.419; in the experiment on H4 (Low Grade Glioma), 0.751; in experiment [4] it was 0.498. Also, the “combination Emax” value in experiment [5] was determined as 0.782; in [6] it was 0.164; in [7], 0.466; in experiment [8], 0.398; in the experiment with MCF7 (Breast Carcinoma) it was 0.676; in experiment [9], 0.224. Also, the “combination Emax” value in experiment [10] is 0.409; in experiment [11], 0.501; in experiment [12] it was 0.168; in experiment [13] it was 0.57; in the experiment with Saos-2 (Osteosarcoma), 0.407; in experiment [14], 0.505. Also, the “combination Emax” value in experiment [15] stood at 0.676; in experiment [16], 0.68.
